Measurements published in ChEMBL document CHEMBL4033647, “Novel coumarin- and quinolinone-based polycycles as cell division cycle 25-A and -C phosphatases inhibitors induce proliferation arrest and apoptosis in cancer cells” (Eur J Med Chem, 2017).
The source made the active and inactive calls. No cut-off for these calls is given here.

Assays:
[1] = tested on: PC-3; test: Cytotoxicity against human PC3 cells assessed as reduction in cell viability after 72 hrs by MTT assay; assay type: functional, cell-based; details: PC-3, 72 h
[2] = Cytotoxicity against human U373n cells assessed as reduction in cell viability after 72 hrs by MTT assay; assay type: functional, cell-based
[3] = tested on: SK-MEL-28; test: Cytotoxicity against human SK-MEL-28 cells assessed as reduction in cell viability after 72 hrs by MTT assay; assay type: functional, cell-based; details: SK-MEL-28, 72 h
[4] = target: T1, M-phase inducer phosphatase 1 (Homo sapiens, UniProt P30304); test: Inhibition of recombinant human full length GST-tagged CDC25A expressed in Escherichia coli BL21-DE3 pLysS using 3-O-methylfluorescein phosphate as substrate after 2 hrs by fluorimetric analysis
T1 sequence (P30304 whole entry): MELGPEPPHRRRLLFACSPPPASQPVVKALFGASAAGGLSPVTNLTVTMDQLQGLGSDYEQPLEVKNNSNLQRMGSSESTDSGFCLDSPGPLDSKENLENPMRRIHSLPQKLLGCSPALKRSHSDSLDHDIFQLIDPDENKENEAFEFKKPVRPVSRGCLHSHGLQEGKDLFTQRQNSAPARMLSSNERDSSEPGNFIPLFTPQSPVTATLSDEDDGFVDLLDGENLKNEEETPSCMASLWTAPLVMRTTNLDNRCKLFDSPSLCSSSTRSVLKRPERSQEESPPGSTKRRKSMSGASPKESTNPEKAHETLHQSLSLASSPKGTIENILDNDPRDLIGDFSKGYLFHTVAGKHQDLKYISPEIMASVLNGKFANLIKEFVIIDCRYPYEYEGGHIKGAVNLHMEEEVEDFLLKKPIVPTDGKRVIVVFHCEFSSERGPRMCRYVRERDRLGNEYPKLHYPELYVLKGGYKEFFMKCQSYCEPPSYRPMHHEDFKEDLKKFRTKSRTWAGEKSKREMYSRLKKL

[5] = tested on: Hs 683; test: Cytotoxicity against human Hs683 cells assessed as reduction in cell viability after 72 hrs by MTT assay; assay type: functional, cell-based; details: Hs 683, 72 h
[6] = organism: Homo sapiens; test: Selectivity ratio of IC50 for recombinant human full length GST-tagged CDC25A expressed in Escherichia coli BL21-DE3 pLysS to IC50 for recombinant human full length GST-tagged CDC25C expressed in Escherichia coli BL21-DE3 pLysS
[7] = target: T2, M-phase inducer phosphatase 3 (Homo sapiens, UniProt P30307); test: Inhibition of recombinant human full length GST-tagged CDC25C expressed in Escherichia coli BL21-DE3 pLysS using 3-O-methylfluorescein phosphate as substrate after 2 hrs by fluorimetric analysis
T2 sequence (P30307 whole entry): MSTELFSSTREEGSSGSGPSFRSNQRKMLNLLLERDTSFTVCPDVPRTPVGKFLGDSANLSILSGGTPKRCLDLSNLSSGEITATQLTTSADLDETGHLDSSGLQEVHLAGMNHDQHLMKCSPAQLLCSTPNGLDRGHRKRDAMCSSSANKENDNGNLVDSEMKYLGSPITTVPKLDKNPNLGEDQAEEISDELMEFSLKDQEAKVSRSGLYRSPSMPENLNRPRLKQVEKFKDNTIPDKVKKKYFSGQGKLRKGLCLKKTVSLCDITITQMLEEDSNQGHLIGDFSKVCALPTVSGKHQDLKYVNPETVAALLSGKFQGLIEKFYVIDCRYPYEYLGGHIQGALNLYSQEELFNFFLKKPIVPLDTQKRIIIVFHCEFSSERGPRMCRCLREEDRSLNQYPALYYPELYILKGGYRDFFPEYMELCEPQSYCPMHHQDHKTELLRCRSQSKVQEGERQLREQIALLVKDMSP

[8] = tested on: A549; test: Cytotoxicity against human A549 cells assessed as reduction in cell viability after 72 hrs by MTT assay; assay type: functional, cell-based; details: A549, 72 h
[9] = tested on: MCF7; test: Cytotoxicity against human MCF7 cells assessed as reduction in cell viability after 72 hrs by MTT assay; assay type: functional, cell-based; details: MCF7, 72 h
[10] = tested on: A-431; test: Cell cycle arrest in human A431 cells assessed as accumulation at subG1 phase at 10 uM after 24 hrs by propidium iodide staining based flow cytometric analysis (reference value: 3.40%); assay type: functional
[11] = tested on: A-431; test: Cell cycle arrest in human A431 cells assessed as accumulation at G1 phase at 50 uM after 24 hrs by propidium iodide staining based flow cytometric analysis (reference value: 53.04%); assay type: functional
[12] = tested on: A-431; test: Cell cycle arrest in human A431 cells assessed as accumulation at subG1 phase at 50 uM after 24 hrs by propidium iodide staining based flow cytometric analysis (reference value: 3.40%); assay type: functional
[13] = tested on: A-431; test: Cell cycle arrest in human A431 cells assessed as accumulation at G2/M phase at 50 uM after 24 hrs by propidium iodide staining based flow cytometric analysis (reference value: 26.23%); assay type: functional
[14] = tested on: A-431; test: Cell cycle arrest in human A431 cells assessed as accumulation at G1 phase at 10 uM after 24 hrs by propidium iodide staining based flow cytometric analysis (reference value: 53.04%); assay type: functional
[15] = tested on: A-431; test: Cell cycle arrest in human A431 cells assessed as accumulation at S phase at 50 uM after 24 hrs by propidium iodide staining based flow cytometric analysis (reference value: 17.33%); assay type: functional
[16] = tested on: A-431; test: Effect on CDC25C splice variant protein expression in human A431 cell extract at 50 uM after 24 hrs by Western blot analysis; assay type: functional, cell-based
[17] = tested on: A-431; test: Cell cycle arrest in human A431 cells assessed as accumulation at S phase at 10 uM after 24 hrs by propidium iodide staining based flow cytometric analysis (reference value: 17.33%); assay type: functional
[18] = tested on: A-431; test: Cell cycle arrest in human A431 cells assessed as accumulation at G2/M phase at 10 uM after 24 hrs by propidium iodide staining based flow cytometric analysis (reference value: 26.23%); assay type: functional
[19] = tested on: A-431; test: Induction of apoptosis in human A431 cells assessed as caspase-3 cleavage at 10 to 50 uM after 24 hrs by Western blot analysis; assay type: functional, cell-based
[20] = tested on: A-431; test: Cytotoxicity against human A431 cells assessed as reduction in cell viability after 24 hrs by MTT assay; assay type: functional, cell-based; details: A-431, 24 h
[21] = tested on: A-431; test: Decrease in CDC25C protein expression level in human A431 cell extract at 50 uM after 24 hrs by Western blot analysis; assay type: functional, cell-based
[22] = target: T3, M-phase inducer phosphatase 3 (Homo sapiens) (UniProt P30307); details: 10 to 50 uM
T3 sequence (whole entry): T2 sequence (P30307 whole entry)
Description: Inhibition of CDC25C in human A431 cells assessed as increase in CDK-mediated phosphorylation of histone H3 at Ser10 residues at 10 to 50 uM after 24 hrs by Western blot analysis

Structure (SMILES) | IC50 [1] [µM] | IC50 [2] [µM] | IC50 [3] [µM] | IC50 [4] [µM] | IC50 [5] [µM] | IC50 [7] [µM] | IC50 [8] [µM] | IC50 [9] [µM] | other results
O=C1C=CC(=O)c2c1ccc1c2c(=O)oc2c3ccccc3ccc12 | 75 | 55 | > 100 | 1.5 | 4 | 0.1 | 70 | 7 | Ratio IC50 [6]: 15
O=C1C=CC(=O)c2c1ccc1c2c(=O)oc2cc(F)ccc21 | 36 | 7 | 18 | 2.19 | 4 | 0.69 | 1 | 11 | –
Cc1ccc2c(c1)oc(=O)c1c3c(ccc12)C(=O)C=CC3=O | > 100 | 98 | > 100 | 2.9 | > 100 | 1 | > 100 | 82 | –
O=C1C=CC(=O)c2c1ccc1c2c(=O)[nH]c2ccc(F)cc21 | 3 | 2 | 3 | 3.37 | 3 | 4.67 | 4 | 4 | –
O=C1C=CC(=O)c2c1ccc1c2c(=O)[nH]c2cc(Cl)ccc21 | 4 | 1 | 5 | 4.04 | 1 | 5.5 | 0.13 | 2 | –
O=C1C=CC(=O)c2c1ccc1c2c(=O)[nH]c2c3ccccc3ccc12 | 42 | 42 | 72 | 3.23 | 30 | 4.37 | 45 | 30 | –
O=C1C=CC(=O)c2c1ccc1c2c(=O)oc2cc(O)ccc21 | 27 | 9 | 29 | 6.6 | 11 | 0.8 | 19 | 9 | –
O=C1C=CC(=O)c2c1ccc1c2c(=O)[nH]c2ccccc21 | 0.9 | 2.7 | 1.5 | 7.73 | 2.8 | 3.64 | 1.8 | 0.9 | Activity [10]: 6.26%; Activity [11]: 53.93%; Activity [12]: 12.81%; Activity [13]: 26.28%; Activity [14]: 57.01%; Activity [15]: 6.98%; Activity [16]: Active; Activity [17]: 11.9%; Activity [18]: 24.83%; Ratio IC50 [6]: 2; Activity [19]: inactive; IC50 [20]: 8.2 µM; Activity [21]: Active; inhibition [22]: Active
Cn1c(=O)c2c3c(ccc2c2ccccc21)C(=O)C=CC3=O | 32 | 41 | 68 | 13 | 67 | 14.9 | 68 | 34 | –
O=C1C=CC(=O)c2c1ccc1c2c(=O)oc2cc(OCc3ccccc3)ccc21 | > 100 | > 100 | > 100 | 3.11 | > 100 | 7.12 | > 100 | > 100 | –
O=C1C=CC(=O)c2c1ccc1c2c(=O)oc2ccc(Cl)cc21 | 19 | 12 | 33 | 2.57 | 6 | 1.44 | 25 | 13 | –
O=C1C=CC(=O)c2c1ccc1c2c(=O)oc2ccc(F)cc21 | 43 | 36 | 40 | 3.5 | 19 | 0.4 | 17 | 3 | Ratio IC50 [6]: 8.75
O=C1C(SCCO)=C(SCCO)C(=O)c2ccccc21 | 3.4 | 1.85 | 2.3 | – | 2.8 | – | 1.45 | 0.96 | –
O=C1C=CC(=O)c2c1ccc1c2c(=O)[nH]c2cc(F)ccc21 | 4 | 3 | 8 | 2.85 | 9 | 4.46 | 18 | 27 | –
CCN(CC)c1ccc2c(c1)oc(=O)c1c3c(ccc12)C(=O)C=CC3=O | 45 | 59 | 72 | 1.2 | 98 | 0.3 | 98 | 58 | –
COc1ccc2c(c1)oc(=O)c1c3c(ccc12)C(=O)C=CC3=O | 31 | 16 | 31 | 2.88 | 24 | 0.98 | 30 | 9 | –
